# Laboratory results published in patent US9682977B2, “Bicyclic heteroaryl indole analogues useful as ROR gamma modulators” (Glenmark Pharmaceuticals S.A., priority 2013, dated 2017).
# Read-outs that look alike come from different tables or passages of the source.
# Target: T1, GST-tagged ROR gamma ligand binding domain (LBD) (Homo sapiens, UniProt P51449)
# T1 construct: purchased Invitrogen
# T1 sequence (P51449 269-508 limits assumed): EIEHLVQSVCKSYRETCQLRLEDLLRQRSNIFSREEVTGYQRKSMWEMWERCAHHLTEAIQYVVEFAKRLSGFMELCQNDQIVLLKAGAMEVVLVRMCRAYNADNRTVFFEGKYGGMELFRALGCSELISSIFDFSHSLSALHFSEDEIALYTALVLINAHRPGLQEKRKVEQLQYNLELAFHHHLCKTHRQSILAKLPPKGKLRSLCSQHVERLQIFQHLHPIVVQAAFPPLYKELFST
# Test: TR-FRET assay for ROR gamma (Lantha Screen, co-activator peptide recruitment)
# Assay type: biochemical
# Conditions: for IC50: class symbols, from dose response curve, read-out: IC50 value; for inhibition at 1 µM: read-out: % inhibition at 1 μM; for inhibition at 10 µM: read-out: % inhibition at 10 μM
# [1] = compound concentration 1 μM, TR-FRET ratio 520/495, percent of control
# [2] = compound concentration 10 μM, TR-FRET ratio 520/495, percent of control
SMILES,IC50 [nM],inhibition at 1 µM [1] [%],inhibition at 10 µM [2] [%],inhibition at 1 µM [%],inhibition at 10 µM [%]
"O=C(O)c1ccc(-n2nc(C(=O)c3c(Cl)cccc3Cl)c3cccnc32)cc1 [Example 36, 4-{3-[(2,6-Dichlorophenyl)carbonyl]-1H-pyrazolo[3,4-b]pyridin-1-yl}benzoic acid]",< 50,95.7,96.4,,
"O=C(O)c1ccc(-n2nc(C(=O)c3c(Cl)cccc3C3CC3)c3cccnc32)cc1 [Example 37, 4-{3-[(2-Chloro-6-cyclopropylphenyl)carbonyl]-1H-pyrazolo[3,4-b]pyridin-1-yl}benzoic acid]",< 50,97.6,94.6,,
"O=C(O)c1ccc(-n2nc(C(=O)c3c(Cl)cccc3C(F)(F)F)c3cccnc32)cc1 [Example 38, 4-(3-{[2-Chloro-6-(trifluoromethyl)phenyl]carbonyl}-1H-pyrazolo[3,4-b]pyridin-1-yl)benzoic acid]",< 50,96.8,93.5,,
"CCOC(=O)c1ccc(-n2cc(C(=O)c3c(Cl)cccc3Cl)c3ccccc32)c(F)c1 [Example 39, Ethyl 4-{3-[(2,6-dichlorophenyl)carbonyl]-1H-indol-1-yl}-3-fluorobenzoate]",,,,15.4,25
"CCCOC(=O)c1ccc(-n2cc(C(=O)c3c(Cl)cccc3Cl)c3ccccc32)c(F)c1 [Example 40, Propyl 4-{3-[(2,6-dichlorophenyl)carbonyl]-1H-indol-1-yl}-3-fluorobenzoate]",,,,9.11,
"CCCCOC(=O)c1ccc(-n2cc(C(=O)c3c(Cl)cccc3Cl)c3ccccc32)c(F)c1 [Example 41, Butyl 4-{3-[(2,6-dichlorophenyl)carbonyl]-1H-indol-1-yl}-3-fluorobenzoate]",,,,5.13,
"CCOC(=O)c1ccc(-n2cc(C(=O)c3c(Cl)cccc3Cl)c3cccc(F)c32)c(F)c1 [Example 42, Ethyl 4-[3-(2,6-dichloro-benzoyl)-7-fluoro-1H-indol-1-yl]-3-fluorobenzoate]",,,,0.61,
"CCCOC(=O)c1ccc(-n2cc(C(=O)c3c(Cl)cccc3Cl)c3cccc(F)c32)c(F)c1 [Example 43, Propyl 4-[3-(2,6-dichloro-benzoyl)-7-fluoro-1H-indol-1-yl]-3-fluorobenzoate]",,,,6.99,1.02
"CCCCOC(=O)c1ccc(-n2cc(C(=O)c3c(Cl)cccc3Cl)c3cccc(F)c32)c(F)c1 [Example 44, Butyl 4-[3-(2,6-dichloro-benzoyl)-7-fluoro-1H-indol-1-yl]-3-fluorobenzoate]",,,,3.55,2.25
"CCOC(=O)c1ccc(-n2nc(Oc3c(Cl)cccc3C(F)(F)F)c3ccccc32)c(F)c1 [Example 45, Ethyl 4-{3-[2-chloro-6-(trifluoromethyl)phenoxy]-1H-indazol-1-yl}-3-fluorobenzoate]",50 to 100,97.9,93.7,,
"CCCOC(=O)c1ccc(-n2nc(Oc3c(Cl)cccc3C(F)(F)F)c3ccccc32)c(F)c1 [Example 46, Propyl 4-{3-[2-chloro-6-(trifluoromethyl)phenoxy]-1H-indazol-1-yl}-3-fluorobenzoate]",,10.9,28.5,,
"CCCCOC(=O)c1ccc(-n2nc(Oc3c(Cl)cccc3C(F)(F)F)c3ccccc32)c(F)c1 [Example 47, Butyl 4-{3-[2-chloro-6-(trifluoromethyl)phenoxy]-1H-indazol-1-yl}-3-fluorobenzoate]",,52,91.9,,
"CC(C)OC(=O)c1ccc(-n2nc(Oc3c(Cl)cccc3C(F)(F)F)c3ccccc32)c(F)c1 [Example 48, Isopropyl 4-{3-[2-chloro-6-(trifluoromethyl)phenoxy]-1H-indazol-1-yl}-3-fluorobenzoate]",,26.3,84.6,,
